Measured values published in patent US20260083704A1, “LXR MODULATORS WITH BICYCLIC CORE MOIETY FOR TREATING DYSLIPIDEMIAS” (OrsoBio, Inc., priority 2022, published 2026).
pEC50: −log10 of the molar value. Read-outs that look alike come from different tables or passages of the source.

Assays:
LXRβ [1] = biological target: T1, LXRβ (Homo sapiens, UniProt P55055); experiment: LXR Gal4 reporter transient transfection assay (mammalian two-hybrid, HEK293), LXRβ; type: cell-based; conditions: ligand-binding domain (LBD) of LXRβ, HEK293; read-out: LBD-M2H Gal4β
T1 construct: LXRβ (amino acids 156-461); expressed in transfected cells; host or cells: HEK293
T1 sequence (P55055 156-460): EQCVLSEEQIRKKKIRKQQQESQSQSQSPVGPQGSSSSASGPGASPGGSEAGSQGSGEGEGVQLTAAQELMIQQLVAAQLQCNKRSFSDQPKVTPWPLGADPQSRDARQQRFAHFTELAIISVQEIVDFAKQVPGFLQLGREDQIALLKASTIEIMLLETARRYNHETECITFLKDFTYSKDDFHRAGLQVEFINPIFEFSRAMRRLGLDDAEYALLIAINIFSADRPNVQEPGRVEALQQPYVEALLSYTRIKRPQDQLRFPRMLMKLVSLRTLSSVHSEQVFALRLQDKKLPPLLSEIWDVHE
Experimental: (§1) LXRα and LXRβ activity status was determined via detection of interaction with coactivator and corepressor proteins in mammalian two-hybrid experiments (M2H). For this, via transient transfection the full length (FL) proteins of LXRα (amino acids 1-447; NP005684; SEQ ID NO:1) or LXRβ-(amino acids 1-461; NP009052; SEQ ID NO:2) or the ligand-binding domains (LBD) of LXRα (amino acids 155-447 SEQ ID NO:3) or LXRβ (amino acids 156-461; SEQ ID NO:4) were expressed from pCMV-AD (Stratagene) as fusions to the transcriptional activation domain of NFkB. As cofactors, domains of either the steroid receptor coactivator 1 (SRC1; amino acids 552-887; SEQ ID NO:5) or of the corepressor NCoR (amino acids 1906-2312; NP006302; SEQ ID NO:6) were expressed as fusions to the DNA binding domain of the yeast transcription factor GAL4 (from pCMV-BD; Stratagene). Interaction was monitored via activation of a coexpressed Firefly Luciferase Reporter gene under control of a promoter containing repetitive GAL4 response elements (vector pFRLuc; Stratagene). Transfection efficiency was controlled via cotransfection of constitutively active pRL-CMV Renilla reniformis luciferase reporter (Promega). HEK293 cells were grown in minimum essential medium (MEM) with 2 mM L-glutamine and Earle's balanced salt solution supplemented with 8.3% fetal bovine serum, 0.1 mM non-essential amino acids, 1 mM sodium pyruvate, at 37° C. in 5% CO2. 3.5×10^4 cells/well were plated in 96-well cell culture plates in growth medium supplemented with 8.3% fetal bovine serum for 16-20 h to ˜90% confluency. For transfection, medium was taken off and LXR and cofactor expressing plasmids as well as the reporter plasmids are added in 30 μL OPTIMEM/well including polyethylene-imine (PEI) as vehicle. Typical amounts of plasmids transfected/well: pCMV-AD-LXR (5 ng), pCMV-BD-cofactor (5 ng), pFR-Luc (100 ng), pRL-CMV (0.5 ng). Compound stocks were prepared in DMSO, prediluted in MEM to a total volume of 120 μL, and added 4 h after addition of the transfection mixture (final vehicle concentration not exceeding 0.2%). Cells were incubated for additional 16 h, lysed for 10 min in 1×Passive Lysis Buffer (Promega) and Firefly and Renilla luciferase activities were measured sequentially in the same cell extract using buffers containing D-luciferine and coelenterazine, respectively. Measurements of luminescence were done in a BMG-luminometer.
(§2) The potencies of Compound 21/3 and its analog, Compound pre-6/3, against LXRα and LXRβ were evaluated in biochemical binding assays, cellular mammalian two-hybrid (M2H) interaction assays evaluating nuclear receptor co-repressor (NCOR) recruitment, and cellular reporter assays evaluating transcriptional activity (Table 5).

LXRβ [2] = biological target: T2, LXRβ (Homo sapiens, UniProt P55055); experiment: as above; type: cell-based; parameters: LXRβ (amino acids 156-461); expressed in transfected cells; host or cells: HEK293; conditions: full length (FL) LXRβ, HEK293; read-out: FL-M2H Gal4β
T2 sequence (P55055 1-460): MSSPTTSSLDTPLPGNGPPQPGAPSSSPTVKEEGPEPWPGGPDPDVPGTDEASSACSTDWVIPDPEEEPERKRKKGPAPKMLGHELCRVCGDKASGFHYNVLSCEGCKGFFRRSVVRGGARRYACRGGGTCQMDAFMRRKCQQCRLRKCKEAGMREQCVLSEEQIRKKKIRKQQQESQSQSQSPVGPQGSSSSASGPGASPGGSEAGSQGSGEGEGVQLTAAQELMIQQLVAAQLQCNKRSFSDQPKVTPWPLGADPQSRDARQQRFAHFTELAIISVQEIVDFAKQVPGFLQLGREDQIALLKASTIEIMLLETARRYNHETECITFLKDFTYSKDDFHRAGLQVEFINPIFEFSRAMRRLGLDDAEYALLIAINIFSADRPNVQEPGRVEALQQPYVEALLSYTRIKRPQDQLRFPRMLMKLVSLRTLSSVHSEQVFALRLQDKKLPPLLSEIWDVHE
Outline: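 HEK293 cells transiently co-transfected with full-length or LBD LXRα/LXRβ fused to NFkB activation domain, GAL4-DBD-fused SRC1 or NCoR cofactor domain, GAL4-responsive firefly luciferase reporter and Renilla control. Compound added 4 h post-transfection (≤0.2% DMSO), incubated 16 h; firefly and Renilla luminescence read sequentially.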

[3] = Pharmacokinetics in mice after single oral dosing (blood/plasma and liver exposure); type: in vivo; conditions: for blood/plasma exposure / liver exposure / liver/blood ratio / blood/plasma exposure (below LLOQ) / liver exposure (below LLOQ): 20 mg/kg single oral dose, time point 4 h; for blood/plasma exposure (below LLOQ) / liver exposure (below LLOQ): number is the LLOQ; for oral bioavailability: single oral dose
Experimental: The pharmacokinetics of the compounds was assessed in mice after single dosing and oral administrations. Blood/plasma and liver exposure was measured via LC-MS.
The study design was as follows: • Animals: C57/bl6/J (Janvier) males • Diet: standard rodent chow • Dose: 20 mg/kg • Animal handling: animals were withdrawn from food at least 12 h before administration • Design: single dose oral administration, n=3 animals per group • Sacrifice: at stated time point (4, 12 or 24 h) after administration • Bioanalytics: LC-MS of liver and blood/plasma samples

[4] = biological target: T3, GST-LXRβ ligand-binding domain (Homo sapiens, UniProt P55055); experiment: TR-FRETβ activity assay (NCoA3 coactivator peptide recruitment); type: biochemical; conditions: 1 μM 24(S)-25-epoxycholesterol prestimulation
T3 construct: amino acids 156-461; NP009052; made in house; host or cells: E. coli
T3 sequence (P55055 156-460 limits assumed): T1 sequence (P55055 156-460)
Outline: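 E. coli-expressed GST-LXRβ LBD (aa 156-461, 76 nM) with biotinylated NCoA3 peptide (400 nM) in Tris/HCl pH 6.8 containing 1 μM 24(S)-25-epoxycholesterol agonist. Compounds tested at 50 μM down to 0.002 μM in triplicate. TR-FRET (Tb cryptate/XL665, ex 340, em 615/665 nm) read after 1 h at 4° C.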

LXRα = biological target: T4, LXRα (Homo sapiens, UniProt Q13133); experiment: LXR Gal4 reporter transient transfection assay (mammalian two-hybrid, HEK293), LXRα; type: cell-based; parameters: expressed in transfected cells; host or cells: HEK293; conditions: full length (FL) LXRα, HEK293; read-out: FL-M2H Gal4α
T4 sequence (Q13133 1-447): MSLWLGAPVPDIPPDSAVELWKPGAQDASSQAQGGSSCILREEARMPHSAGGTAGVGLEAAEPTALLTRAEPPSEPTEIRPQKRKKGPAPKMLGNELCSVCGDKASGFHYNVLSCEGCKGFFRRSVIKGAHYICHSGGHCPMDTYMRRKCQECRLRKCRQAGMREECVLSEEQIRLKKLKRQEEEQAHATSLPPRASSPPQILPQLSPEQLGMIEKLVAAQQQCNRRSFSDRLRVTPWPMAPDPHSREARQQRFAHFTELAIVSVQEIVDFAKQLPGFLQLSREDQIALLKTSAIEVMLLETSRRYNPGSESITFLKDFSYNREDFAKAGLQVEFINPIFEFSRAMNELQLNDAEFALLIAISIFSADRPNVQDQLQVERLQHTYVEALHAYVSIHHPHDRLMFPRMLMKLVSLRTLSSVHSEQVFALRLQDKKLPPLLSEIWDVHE
Experimental: as §1, §2

| SMILES | pEC50 (LXRβ [1]) | pEC50 [4] | also measured |
| --- | --- | --- | --- |
| N#Cc1sccc1-c1c(-c2cccc(C3CC3C(=O)O)c2)n(S(=O)(=O)c2ccc(Cl)cc2)c2ccc(F)cc12 (stereo not shown) [3/24] | > 7.00 | – | pEC50 (LXRβ [2]): > 7.00; blood/plasma exposure [3]: D (<100 nM); liver exposure [3]: C (1 μM to ≤3 μM); liver/blood ratio [3]: D (>30) |
| Cc1ccc(S(=O)(=O)n2c(-c3cccc(N4CC(C(=O)O)C4)c3)c(-c3ccsc3C#N)c3cc(F)c(F)cc32)cc1 [3/42] | > 7.00 | 5.00 to 6.00 | pEC50 (LXRβ [2]): > 7.00 |
| Cc1ccc(S(=O)(=O)n2c(-c3cccc(N4CC(C(=O)O)C4)c3)c(-c3ccsc3C#N)c3cc(F)c(Cl)cc32)cc1 [3/43] | 6.00 to 7.00 | 5.00 to 6.00 | pEC50 (LXRβ [2]): > 7.00 |
| Cc1ccc(S(=O)(=O)n2c(-c3cccc(N4CC(C(=O)O)C4)c3)c(-c3ccsc3C#N)c3cc(Cl)ccc32)cc1 [3/44] | > 7.00 | 5.00 to 6.00 | pEC50 (LXRβ [2]): > 7.00 |
| Cc1ccc(S(=O)(=O)n2c(-c3cccc(N4CC(C(=O)O)C4)c3)c(-c3ccsc3C#N)c3cc(C)ccc32)cc1 [3/46] | > 7.00 | 6.00 to 7.00 | pEC50 (LXRβ [2]): > 7.00 |
| N#Cc1sccc1-c1c(-c2cccc(N3CC(C(=O)O)C3)c2)n(S(=O)(=O)c2ccc(Cl)cc2)c2ccccc12 [30/7] | > 7.00 | 6.00 to 7.00 | blood/plasma exposure [3]: D (<100 nM); liver exposure [3]: B (300 nM to ≤1 μM); liver/blood ratio [3]: D (>30) |
| N#Cc1sccc1-c1c(-c2ccc(C3CC3C(=O)O)s2)n(S(=O)(=O)c2ccc(Cl)cc2)c2ccccc12 (stereo not shown) [30/8] | 6.00 to 7.00 | 5.00 to 6.00 | – |
| N#Cc1sccc1-c1c(-c2cc(Cl)cc(C3CC3C(=O)O)c2)n(S(=O)(=O)c2ccc(Cl)cc2)c2ccccc12 (stereo not shown) [30/9] | > 7.00 | 5.00 to 6.00 | – |
| N#Cc1sccc1-c1c(-c2cccc(N3CCC(C(=O)O)C3)c2)n(S(=O)(=O)c2ccc(Cl)cc2)c2ccccc12 (stereo not shown) [30/11] | > 7.00 | 6.00 to 7.00 | – |
| N#Cc1sccc1-c1c(-c2cccc(C3CC3C(=O)O)c2)n(S(=O)(=O)C2CC2)c2ccccc12 (stereo not shown) [30/12] | 6.00 to 7.00 | 5.00 to 6.00 | – |
| Cc1ccc(S(=O)(=O)n2c(-c3cccc(C4CC4C(=O)O)c3)c(-c3ccsc3F)c3ccccc32)cc1 (stereo not shown) [30/14] | 6.00 to 7.00 | 5.00 to 6.00 | – |
| Cc1ccc(S(=O)(=O)n2c(-c3cccc(C4CC4C(=O)O)c3)c(-c3ccc(F)cc3C#N)c3ccccc32)cc1 (stereo not shown) [30/15] | 6.00 to 7.00 | 5.00 to 6.00 | – |
| CS(=O)(=O)NC(=O)C1CC1c1cccc(-c2c(-c3ccsc3C#N)c3ccccc3n2S(=O)(=O)c2ccc(Cl)cc2)c1 (stereo not shown) [32/1] | > 7.00 | 6.00 to 7.00 | – |
| Cc1cccc(C#N)c1-c1c(-c2cccc(-c3ccc(C(=O)O)cc3Cl)c2)n(S(=O)(=O)c2ccc(C(F)F)cc2)c2ccc(F)cc12 [41/2, 2-chloro-3′-(3-(2-cyano-6-methylphenyl)-1-((4-(difluoro-methyl)phenyl)sulfonyl)-5-fluoro-1H-indol-2-yl)-[1,1′-biphenyl]-4-carboxylic acid] | – | > 7.00 | pEC50 (LXRα): > 7.00 |
| N#Cc1sccc1-c1c(-c2cccs2)n(S(=O)(=O)c2ccc(Cl)cc2)c2cc(CCC(=O)O)c(O)cc12 [Compound 17] | 5.00 to 6.00 | < 5.00 | – |
| O=C(O)c1sccc1-c1c(-c2cccs2)n(S(=O)(=O)c2ccc(Cl)cc2)c2ccccc12 [Compound 21] | 5.00 to 6.00 | < 5.00 | – |
| NC(=O)c1sccc1-c1c(-c2cccs2)n(S(=O)(=O)c2ccc(Cl)cc2)c2ccccc12 [Compound 22] | 6.00 to 7.00 | 5.00 to 6.00 | – |
| N#Cc1sccc1-c1c(-c2cccs2)n(S(=O)(=O)C2CCCCC2)c2ccccc12 [Compound 24] | > 7.00 | 5.00 to 6.00 | – |
| N#Cc1sccc1-c1c(-c2ccccc2)n(S(=O)(=O)c2ccc(Cl)cc2)c2ccccc12 [Compound 26] | > 7.00 | 6.00 to 7.00 | – |
| N#Cc1sccc1-c1c(-c2ccccc2)n(S(=O)(=O)c2ccc(OCC(=O)O)cc2)c2ccccc12 [Compound 27] | 6.00 to 7.00 | 5.00 to 6.00 | – |
| N#Cc1sccc1-c1c(-c2cccc(OCCC(=O)O)n2)n(S(=O)(=O)c2ccc(Cl)cc2)c2ccccc12 [Compound 31] | 6.00 to 7.00 | 5.00 to 6.00 | – |
| Cc1cc(C)c(S(=O)(=O)N(Cc2ccc(-c3cccc(S(C)(=O)=O)c3)cc2)Cc2ccc(C(F)(F)F)o2)c(C)c1 [GSK2033, reference compound] | – | – | blood/plasma exposure (below LLOQ) [3]: (14.4 ng/mL); liver exposure (below LLOQ) [3]: (9.6 ng/mL); oral bioavailability [3]: not orally bioavailable |
| CCOC(=O)c1ccc(CN(Cc2ccc(-c3cccc(S(C)(=O)=O)c3)cc2)S(=O)(=O)c2c(C)cc(C)cc2C)o1 [SR9238, reference compound] | – | – | blood/plasma exposure (below LLOQ) [3]: below LLOQ; liver exposure (below LLOQ) [3]: below LLOQ; oral bioavailability [3]: not orally bioavailable |
